The record followed here is the METLIN SMRT retention time set (Domingo-Almenara et al. 2019).

Structures are written as SMILES.

The nature of this data set: gradient 5% acetonitrile 3 min, to 50% in 2 min, to 85% in 15 min, held 3 min, 100 µL/min. The settings on record: column: Zorbax Extend-C18 2.1 x 50 mm; eluents: water / acetonitrile, 0.1% formic acid. In short, it runs like this:
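Pure standards were run in mixtures of ~100 molecules by HPLC coupled to a quadrupole time-of-flight mass spectrometer. The column was a Zorbax Extend-C18 (2.1 × 50 mm, 1.8 μm) at 100 μL/min, with water and acetonitrile each containing 0.1% formic acid, in positive and negative ionization mode. Dead and dwell volumes were 40 μL and 900 μL. Retention time was taken from computationally picked adduct peaks, each manually inspected, with data collected over 3 months.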
The compound `Cc1ccc(C(O)Cn2ccn3nc(-c4ccc(F)cc4)cc3c2=O)cc1` (stereo not given) came in with an RP-LC retention time of 966 s.

In turn, `O=C(Cn1ccc2sccc2c1=O)Nc1ccc(F)c(F)c1` registered an RP-LC retention time of 752 s.

Consider `O=C(Nc1ccc2c(c1)OCO2)N1CCC2(CC1)Nc1cc(F)ccc1-n1cccc12`, for which the RP-LC retention time is 1000 s.

Take `O=C(NC1CC1)c1ccc(N2CCC(NCc3cc(F)ccc3O)C2)nc1` (stereo not given): the RP-LC retention time stood at 544 s.

`O=C(Cn1cccc1-c1nnc(C2CCC2)o1)N1CCN(Cc2ccc3c(c2)OCO3)CC1` displayed an RP-LC retention time of 688 s.

`Cc1ccc(Nc2nc(-c3ccc(F)cc3F)cs2)nc1` had an RP-LC retention time of 1070 s.

For the compound `Cc1c(Cl)cccc1S(=O)(=O)N1CCc2nc(-c3ccccc3)ncc2C1`, the RP-LC retention time was found to be 1210 s.

As for `CS(=O)(=O)N1CCN(Cc2nnnn2-c2ccc(Cl)cc2)CC1`, the RP-LC retention time is 719 s.

In turn, `Cn1ncc2c(N3CCSCC3)nc(C(=O)NCCc3ccc(Cl)cc3)nc21` showed an RP-LC retention time of 913 s.

Take `Clc1ccc(Nc2nc3ccccc3c3nc(C4CCCCC4)[nH]c23)cc1Cl`: the RP-LC retention time was 1130 s.

Turning to `CCOCCCNC(=O)C1CCN(c2nnc3cccc(C)n23)CC1`, the RP-LC retention time is 593 s.

In turn, `Cn1cc(S(=O)(=O)N2CCC(C(=O)N3CCc4ccccc4C3)CC2)cc1C(=O)N1CCCC1` had an RP-LC retention time of 782 s.

In the case of `CN(CCCNC(=O)CCCn1c(=O)c2cccn2c2ccc(F)cc21)Cc1ccccc1`, the RP-LC retention time came to 673 s.

Regarding `CN(C)c1ccc(Nc2nc(-c3ccc(O)cc3O)cs2)cc1`, the RP-LC retention time was found to be 850 s.

As to `COc1ccccc1NC(=O)c1[nH]c2cc(C)sc2c1CN1CCOCC1`, the RP-LC retention time is 693 s.

As to `Cc1ccc(N2CCN(c3nccn4c(=O)n(CC(=O)Nc5ccc(C)c(Cl)c5)nc34)CC2)cc1`, the RP-LC retention time was determined as 1060 s.

In turn, `CS(=O)(=O)c1ccc([C@@H](O)[C@@H](CF)NC(=O)C(Cl)Cl)cc1` came in with an RP-LC retention time of 723 s.

Take `CCCn1ccc2oc(C)c(C(=O)N3CCN(CC(C)C)CC3)c2c1=O`: the RP-LC retention time turned out to be 575 s.

Regarding `CCc1nc2cc(N3CCCC(C(=O)NC4CCCC4)C3)cnc2nc1CC` (stereo not given), the RP-LC retention time worked out at 785 s.

The compound `C=CCN1CCc2cc(O)c(O)cc2C(c2ccccc2)C1` (stereo not given) yielded an RP-LC retention time of 652 s.

`Cc1nc2cc3c(cc2n1CC(=O)Nc1ccc(F)c(Cl)c1)OCCO3` registered an RP-LC retention time of 690 s.

As to `Clc1ccc2nc(-c3ccccc3)c(Nc3ccc4c(c3)OCCO4)n2c1`, the RP-LC retention time was 746 s.

For `CCOC(=O)N1CCC(NC(=O)c2cc3sccc3n2Cc2ccc(Cl)cc2)CC1`, the RP-LC retention time was determined as 1060 s.

For `Cc1cc(C)n(CCN2CCN(C(=O)Cn3cnc4ccccc43)CC2)n1`, the RP-LC retention time is 512 s.

The compound `CCn1nnc2cc(-c3noc(CNC(=O)Cc4ccccc4)n3)ccc21` gave an RP-LC retention time of 767 s.

Take `COC(=O)C1=C(C)NC(=O)NC1c1ccc(Cl)c(Cl)c1` (stereo not given): the RP-LC retention time worked out at 726 s.

In turn, `O=C([C@@H]1C[C@H](Oc2cccnc2)CN1C(=O)C1CCC1)N1CCCC1` returned an RP-LC retention time of 565 s.

Compound `CC(=O)Nc1ccc(-c2noc(C3CCCN(C(=O)c4ccoc4)C3)n2)cc1` (stereo not given) returned an RP-LC retention time of 731 s.

In the case of `Cc1noc(-c2nc(-c3ccc(Cl)c(F)c3)no2)n1`, the RP-LC retention time stood at 1090 s.

Regarding `CCOC(=O)COc1cccc2c1CCN(Cc1ccc(Cl)cc1)C2=O`, the RP-LC retention time was found to be 934 s.

Turning to `CC(C)c1cccc(Nc2nc3ccncc3n(Cc3ccccc3)c2=O)c1`, the RP-LC retention time was determined as 911 s.

`Cc1nc(-c2ccncc2)nc2c1CC(=O)N2C1CCCCC1` displayed an RP-LC retention time of 716 s.

As to `Cc1cc(C(=O)N2CCC(N3CCCCC3)CC2)c2cc(Br)ccc2n1`, the RP-LC retention time came out at 586 s.

In turn, `COCc1nn(CC2CC2)c2c1CN(C(=O)c1ccc(C)s1)CC2` returned an RP-LC retention time of 775 s.

Turning to `COc1ccc(N2C(=O)CN(C(C)c3ccccc3)[C@H]3CS(=O)(=O)C[C@H]32)cc1` (stereo not given in full), the RP-LC retention time is 808 s.

Turning to `COCc1cc(=O)n(CC(=O)Nc2cc(C)ccc2C)c(N)n1`, the RP-LC retention time stood at 631 s.

Take `CCCCc1nn2c(=O)cc(CN3CCN(c4ncccn4)CC3)nc2s1`: the RP-LC retention time was 604 s.

In turn, `CC(=O)c1cccc(NC(=O)Cn2nc3c(cc2=O)CN(C(C)=O)CC3)c1` yielded an RP-LC retention time of 601 s.

Turning to `Cc1ccc(-c2ccc(N3CCCC(C(=O)NC4CC4)C3)nn2)cc1` (stereo not given), the RP-LC retention time came out at 631 s.

Turning to `O=S(=O)(c1cc(-c2nnc(C3CC3)o2)co1)N1CCC(N2CCCCC2)CC1`, the RP-LC retention time worked out at 597 s.

The compound `O=C(NC1CCCC1)c1nnc(-c2ccc(S(=O)(=O)N3CCCCC3)cc2)o1` showed an RP-LC retention time of 960 s.

For `CC1CN=C2C=C(N3CCN(C(=O)NCc4cccc(F)c4)CC3)N=CN21` (stereo not given), the RP-LC retention time turned out to be 605 s.

`COc1ccc(-c2csc(Nc3cccc(C)n3)n2)cc1` came in with an RP-LC retention time of 821 s.

Regarding `Cc1ccc(S(=O)(=O)NCCc2cn(CC(C)C)c3ncccc23)cc1Cl`, the RP-LC retention time came out at 1070 s.

On to `Cc1cc2c(cc1S(=O)(=O)N1CCCC1C(=O)Nc1ccccc1)OC(C)C(=O)N2` (stereo not given), for which the RP-LC retention time amounted to 777 s.

Take `COc1ccc2c(c1)C1(CCN(C(=O)c3ccccc3F)C1)C(=O)N2` (stereo not given): the RP-LC retention time amounted to 703 s.

`N#Cc1cccc(NC(=O)Cn2nc3n(c2=O)CCCC3)c1` gave an RP-LC retention time of 638 s.

For the compound `CCOc1ccccc1C(=O)N1CCN(c2nnc(SCC(=O)NC(C)C)s2)CC1`, the RP-LC retention time amounted to 673 s.

As to `CCCCC(CC)C(=O)Nc1nc(-c2ccc(Cl)cc2)cs1` (stereo not given), the RP-LC retention time worked out at 1240 s.

Take `Cc1ccc(NC(=O)C2CCCN2S(=O)(=O)c2cc3c(cc2C)NC(=O)CO3)cc1C` (stereo not given): the RP-LC retention time was determined as 794 s.

`Cc1ccsc1C(=O)N1CC[C@@H](n2c(=O)n(C)c3cccnc32)C1` returned an RP-LC retention time of 710 s.

In turn, `O=C(NCCc1csc(C2CCCN(C(=O)C3CC3)C2)n1)C1CC1` (stereo not given) yielded an RP-LC retention time of 662 s.

Regarding `COc1ccc(CNC(=O)C2CCCN(c3nnc4ccc(Cl)cn34)C2)c(OC)c1` (stereo not given), the RP-LC retention time turned out to be 753 s.

On to `COc1ccccc1-n1ccnc(NC(=O)Nc2cccc(F)c2)c1=O`, for which the RP-LC retention time was determined as 919 s.

Regarding `Cc1nc(-c2csc(S(=O)(=O)N3CCCC(C(=O)NC4CCCCCCC4)C3)c2)no1` (stereo not given), the RP-LC retention time was 1060 s.

`Clc1ccc(Cl)c(-c2ccc(CNC3CC3)o2)c1`: the RP-LC retention time was 698 s.

`Cc1ccccc1NC(=O)CN1C(=O)CC(C)S(=O)(=O)c2ccccc21` (stereo not given): the RP-LC retention time was found to be 760 s.

In turn, `O=C(c1cc(-c2ccccc2)n[nH]1)N1CCN(c2ccc(N3CCOCC3)nn2)CC1` displayed an RP-LC retention time of 595 s.

`O=C(NCCC1=CCCCC1)c1csc(Nc2ncccn2)n1` displayed an RP-LC retention time of 797 s.

For the compound `CCn1c(=O)c(C)nc2cc(-c3noc(C4CC(=O)N(c5ccccc5)C4)n3)ccc21` (stereo not given), the RP-LC retention time amounted to 837 s.

With `CC(=O)N1CCc2cc(N3CC(C(=O)NCc4ccccc4Cl)CC3=O)ccc21` (stereo not given), the RP-LC retention time was determined as 708 s.

Regarding `COc1ccc(C2(C(=O)NCC34CCCC=C3NC(=O)CC4)CC2)cc1` (stereo not given), the RP-LC retention time amounted to 776 s.

In turn, `CCn1c(SC)nnc1-c1nn(C)c2c1CN(C(=O)c1cccn1C)CC2` returned an RP-LC retention time of 684 s.

In the case of `CCc1nc(-c2cc(S(=O)(=O)N3CCC(C(=O)NCc4ccc(C)o4)CC3)c(C)s2)no1`, the RP-LC retention time was 969 s.

The compound `Cc1noc(CNC(=O)C2CCN(C(=O)Cc3cn(C)c4ccccc34)CC2)n1` had an RP-LC retention time of 656 s.

In turn, `Cc1ccc(-n2nc(C)c3c(C)cc(OCC(=O)NCc4ccc5c(c4)OCO5)nc32)cc1` gave an RP-LC retention time of 1060 s.

As to `COCCC1CCN(C(=O)CN(C)C(=O)c2n[nH]c3ccccc23)CC1`, the RP-LC retention time worked out at 661 s.

For `COc1ccc(C2C(C(=O)NCC3CCCO3)c3cc(OC)c(OC)cc3C(=O)N2C)cc1OC` (stereo not given), the RP-LC retention time came out at 652 s.

As to `Cc1cnc(NC(=O)C2CN(c3nc4ccccc4s3)C2)s1`, the RP-LC retention time was found to be 700 s.

For `COc1cccc(-c2n[nH]c3c2C(c2ccc(O)c(OC)c2)NC3=O)c1` (stereo not given), the RP-LC retention time was found to be 634 s.

For `CCN(Cc1c(C)nn(CC)c1C)C(=O)Cn1nc2n(c1=O)CCC(N)CC2` (stereo not given), the RP-LC retention time was found to be 551 s.

`c1ccc(CCCCN2CCC(c3ccccc3)CC2)cc1` had an RP-LC retention time of 851 s.

Regarding `O=C(NCc1ccccc1)C1CC(=O)N(c2ccc3c(c2)CCN3C(=O)C2CC2)C1` (stereo not given), the RP-LC retention time amounted to 727 s.

`COc1cc2nc(C(=O)N3CCCCC3)cc(Nc3ccc(C(C)C)cc3)c2cc1OC` displayed an RP-LC retention time of 832 s.

As for `Cn1nc(-c2nc(Cc3ccccc3)no2)c2c1CCN(C(=O)NC1CCCC1)C2`, the RP-LC retention time was found to be 867 s.

Turning to `CCCN1CCN(C(=O)CN2C(=O)CCCc3cc(S(=O)(=O)N4CCOCC4)ccc32)CC1`, the RP-LC retention time was found to be 590 s.

For the compound `CCN(CC)c1nc2ccsc2c(=O)n1CCC(=O)NCc1ccc(F)cc1`, the RP-LC retention time worked out at 831 s.

As for `COC(=O)c1ccc(NC(=O)Cc2csc(Nc3ccc(F)cc3)n2)cc1`, the RP-LC retention time amounted to 838 s.

`CC(CCc1ccccc1)NC(=O)C1CN(C(=O)c2cccs2)C1` (stereo not given) had an RP-LC retention time of 727 s.

On to `c1ccc(-n2nnnc2Oc2ccc(CNCCc3c[nH]c4ccccc34)cc2)cc1`, for which the RP-LC retention time came to 748 s.
